Assay results from ChEMBL document CHEMBL3822420, “New peptide deformylase inhibitors design, synthesis and pharmacokinetic assessment” (Bioorg Med Chem Lett, 2016).
≈ marks a conversion by molar mass, not a printed value.

What was measured:
Rattus norvegicus [1] = assay: (§1) Half life in Sprague-Dawley rat at 10 mg/kg, po; format: ADME, organism-based; conditions: in vivo
Enterococcus faecalis [2] = assay: Antibacterial activity against Enterococcus faecalis 14-5; format: functional
[3] = system: Staphylococcus epidermidis; assay: Antibacterial activity against methicillin-sensitive Staphylococcus epidermidis 14-3; format: functional
Rattus norvegicus [4] = assay: (§2) AUC (0 to infinity) in Sprague-Dawley rat at 10 mg/kg, po; format: ADME, organism-based; design: dose 10 mg/kg, time infinity, route oral; conditions: in vivo
Escherichia coli [5] = assay: Antibacterial activity against Escherichia coli 14-1 expressing extended-spectrum beta-lactamase; format: functional
[6] = system: Staphylococcus epidermidis; assay: Antibacterial activity against methicillin-resistant Staphylococcus epidermidis 14-1; format: functional
[7] = Cmax in Sprague-Dawley rat at 10 mg/kg, po; format: ADME, organism-based; design: dose 10 mg/kg, route oral; conditions: in vivo
Enterococcus faecalis [8] = assay: Antibacterial activity against Enterococcus faecalis 14-3; format: functional
Staphylococcus aureus [9] = assay: Antibacterial activity against methicillin-resistant Staphylococcus aureus 14-5; format: functional
[10] = Tmax in Sprague-Dawley rat at 10 mg/kg, po; format: ADME, organism-based; conditions: in vivo
Staphylococcus aureus [11] = assay: Antibacterial activity against methicillin-sensitive Staphylococcus aureus 14-4; format: functional
[12] = Volume of distribution at steady state in Sprague-Dawley rat at 2 mg/kg, iv; format: ADME, organism-based; conditions: in vivo, read-out: Vdss
Rattus norvegicus [13] = assay: (§3) Clearance in Sprague-Dawley rat at 10 mg/kg, po; format: ADME, organism-based; conditions: in vivo
[14] = Half life in Sprague-Dawley rat at 2 mg/kg, iv; format: ADME, organism-based; conditions: in vivo
Staphylococcus aureus [15] = assay: Antibacterial activity against methicillin-sensitive Staphylococcus aureus 14-3; format: functional
Staphylococcus aureus [16] = assay: Antibacterial activity against methicillin-sensitive Staphylococcus aureus 14-2; format: functional
Staphylococcus aureus [17] = assay: Antibacterial activity against methicillin-sensitive Staphylococcus aureus 14-1; format: functional
[18] = AUC (0 to t) in Sprague-Dawley rat at 10 mg/kg, po; format: ADME, organism-based; conditions: in vivo
[19] = Cmax in Sprague-Dawley rat at 2 mg/kg, iv; format: ADME, organism-based; design: dose 2 mg/kg, route intravenous; conditions: in vivo
[20] = system: Staphylococcus epidermidis; assay: Antibacterial activity against methicillin-sensitive Staphylococcus epidermidis 14-1; format: functional
Enterococcus faecalis [21] = assay: Antibacterial activity against Enterococcus faecalis 14-1; format: functional
[22] = Oral bioavailability in Sprague-Dawley rat at 10 mg/kg; format: ADME, organism-based; conditions: in vivo
Escherichia coli [23] = assay: Antibacterial activity against Escherichia coli 14-2; format: functional
[24] = system: Staphylococcus epidermidis; assay: Antibacterial activity against methicillin-sensitive Staphylococcus epidermidis 14-2; format: functional
[25] = AUC (0 to t) in Sprague-Dawley rat at 2 mg/kg, iv; format: ADME, organism-based; conditions: Sprague-Dawley, in vivo
Rattus norvegicus [26] = assay: Volume of distribution at steady state in Sprague-Dawley rat at 10 mg/kg, po; format: ADME, organism-based; conditions: in vivo
Enterococcus faecalis [27] = assay: Antibacterial activity against Enterococcus faecalis 14-2; format: functional
Escherichia coli [28] = assay: Antibacterial activity against Escherichia coli 14-2 expressing extended-spectrum beta-lactamase; format: functional
[29] = Clearance in Sprague-Dawley rat at 2 mg/kg, iv; format: ADME, organism-based; conditions: in vivo
Escherichia coli [30] = assay: Antibacterial activity against Escherichia coli 14-1; format: functional
[31] = MRT (0 to t) in Sprague-Dawley rat at 2 mg/kg, iv; format: ADME, organism-based; conditions: in vivo
[32] = MRT (0 to t) in Sprague-Dawley rat at 10 mg/kg, po; format: ADME, organism-based; conditions: in vivo
Staphylococcus aureus [33] = assay: Antibacterial activity against methicillin-resistant Staphylococcus aureus 14-1; format: functional
[34] = AUC (0 to infinity) in Sprague-Dawley rat at 2 mg/kg, iv; format: ADME, organism-based; design: dose 2 mg/kg, route intravenous, time infinity; conditions: Sprague-Dawley, in vivo
[35] = Tmax in Sprague-Dawley rat at 2 mg/kg, iv; format: ADME, organism-based; conditions: in vivo
Staphylococcus aureus [36] = assay: Antibacterial activity against methicillin-resistant Staphylococcus aureus 14-2; format: functional
Staphylococcus aureus [37] = assay: Antibacterial activity against methicillin-resistant Staphylococcus aureus 14-4; format: functional
[38] = system: Staphylococcus epidermidis; assay: Antibacterial activity against methicillin-resistant Staphylococcus epidermidis 14-4; format: functional
[39] = as §1; format: ADME, organism-based; conditions: Sprague-Dawley, in vivo
[40] = as §2; format: ADME, organism-based; design: dose 10 mg/kg, time infinity, route oral; conditions: Sprague-Dawley, in vivo
[41] = as §3; format: ADME, organism-based; conditions: Sprague-Dawley, in vivo
[42] = system: Staphylococcus epidermidis; assay: Antibacterial activity against methicillin-resistant Staphylococcus epidermidis 14-2; format: functional
[43] = system: Staphylococcus epidermidis; assay: Antibacterial activity against methicillin-resistant Staphylococcus epidermidis 14-3; format: functional

| Structure (SMILES) | MIC (Enterococcus faecalis [2]) | MIC [3] | MIC (Escherichia coli [5]) | MIC [6] | Cmax [7] | MIC (Enterococcus faecalis [8]) | MIC (Staphylococcus aureus [9]) | Tmax [10] | MIC (Staphylococcus aureus [11]) | Vd [12] | half-life [14] | MIC (Staphylococcus aureus [15]) | MIC (Staphylococcus aureus [16]) | MIC (Staphylococcus aureus [17]) | AUC(0-t) [18] | Cmax [19] | MIC [20] | MIC (Enterococcus faecalis [21]) | bioavailability [22] | MIC (Escherichia coli [23]) | also measured |
| --- | --- | --- | --- | --- | --- | --- | --- | --- | --- | --- | --- | --- | --- | --- | --- | --- | --- | --- | --- | --- | --- |
| CCCC[C@H](CN(O)C=O)C(=O)N1CC2(CC2)C[C@H]1C(=O)Nc1ccc(C)c(Nc2nccc(-c3cccnc3)n2)c1 | > 128 µg/mL | < 0.008 µg/mL | 4 µg/mL (≈ 7 µM) | < 0.008 µg/mL | 100 ng/mL | 0.03 µg/mL (≈ 0.0525 µM) | < 0.008 µg/mL | 15 min | 0.015 µg/mL (≈ 0.0262 µM) | 2.6 L/kg | 216 min | 0.015 µg/mL (≈ 0.0262 µM) | 0.015 µg/mL (≈ 0.0262 µM) | 0.015 µg/mL (≈ 0.0262 µM) | 126 ng·h/mL | 1080 ng/mL | 0.015 µg/mL (≈ 0.0262 µM) | 0.03 µg/mL (≈ 0.0525 µM) | 3% | > 128 µg/mL | t1/2 (Rattus norvegicus [1]): 2.24 h; AUC (Rattus norvegicus [4]): 134 ng·h/mL; CL (Rattus norvegicus [13]): 334 mL/h/kg; MIC [24]: < 0.008 µg/mL; AUC(0-t) [25]: 881 ng·h/mL; Vdss (Rattus norvegicus [26]): 1772 L/kg; MIC (Enterococcus faecalis [27]): 0.015 µg/mL (≈ 0.0262 µM); MIC (Escherichia coli [28]): > 128 µg/mL; clearance [29]: 37.7 mL/min/kg; MIC (Escherichia coli [30]): > 128 µg/mL; MRT last [31]: 1.15 h; MRT last [32]: 3.32 h; MIC (Staphylococcus aureus [33]): 0.015 µg/mL (≈ 0.0262 µM); AUC(0-inf) [34]: 892 ng·h/mL; Tmax [35]: 4.8 min; MIC (Staphylococcus aureus [36]): 0.015 µg/mL (≈ 0.0262 µM); MIC (Staphylococcus aureus [37]): < 0.008 µg/mL; MIC [38]: < 0.008 µg/mL |
| CCCC[C@H](CN(O)C=O)C(=O)N1CC2(CC2)C[C@H]1C(=O)Nc1ccc(F)c[n+]1[O-] | 128 µg/mL (≈ 303 µM) | 0.03 µg/mL (≈ 0.071 µM) | 1 µg/mL (≈ 2.37 µM) | 0.03 µg/mL (≈ 0.071 µM) | 1850 ng/mL | 0.5 µg/mL (≈ 1.18 µM) | 0.125 µg/mL (≈ 0.296 µM) | 15 min | 0.125 µg/mL (≈ 0.296 µM) | 2.6 L/kg | 218 min | 0.125 µg/mL (≈ 0.296 µM) | 0.125 µg/mL (≈ 0.296 µM) | 0.125 µg/mL (≈ 0.296 µM) | 1960 ng·h/mL | 1780 ng/mL | 0.03 µg/mL (≈ 0.071 µM) | 0.25 µg/mL (≈ 0.592 µM) | 31% | 64 µg/mL (≈ 151 µM) | half-life [39]: 296 min; AUC(0-inf) [40]: 1990 ng·h/mL; CL/F [41]: 91.3 mL/min/kg; MIC [42]: 0.06 µg/mL (≈ 0.142 µM); MIC [24]: 0.125 µg/mL (≈ 0.296 µM); AUC(0-t) [25]: 1260 ng·h/mL; Vdss (Rattus norvegicus [26]): 39.4 L/kg; MIC (Enterococcus faecalis [27]): 0.5 µg/mL (≈ 1.18 µM); MIC (Escherichia coli [28]): 64 µg/mL (≈ 151 µM); MIC [43]: 0.03 µg/mL (≈ 0.071 µM); clearance [29]: 26.2 mL/min/kg; MIC (Escherichia coli [30]): 128 µg/mL (≈ 303 µM); MRT last [31]: 1.65 h; MRT last [32]: 2.04 h; MIC (Staphylococcus aureus [33]): 0.25 µg/mL (≈ 0.592 µM); AUC(0-inf) [34]: 1280 ng·h/mL; Tmax [35]: 8.4 min; MIC (Staphylococcus aureus [36]): 0.25 µg/mL (≈ 0.592 µM); MIC (Staphylococcus aureus [37]): 0.125 µg/mL (≈ 0.296 µM); MIC [38]: 0.125 µg/mL (≈ 0.296 µM) |
